These are literature values, as cited in article PMC7670640 (Pharmacology Research & Perspectives, 2020).

The conditions of the series: prior terminated phase IIb clinical trial; cited from earlier work.

`C=C(C)[C@@H]1CC[C@]2(NCCN3CCS(=O)(=O)CC3)CC[C@]3(C)[C@H](CC[C@@H]4[C@@]5(C)CC=C(c6ccc(C(=O)O)cc6)C(C)(C)[C@@H]5CC[C@]43C)[C@@H]12` [GSK3532795]: the GI intolerability entry is “GI intolerability (predominantly abdominal pain and diarrhea)”.
